Common to all, as to assay type: cell-based, human
One data set has as its system ZO-1. Briefly: Immunolocalization of junctional protein ZO-1. As to conditions: treated HepaRG cultures.
The next data set relates to Rho-kinase. Briefly: Rho-kinase activity (Merck-Millipore kit) in treated cell lysates. The following applies: differentiated HepaRG cells, 2 h, 1-50 μM. How it is done:
Differentiated HepaRG cells were exposed to increased doses of CPZ (from 1-50 μM) for 2 h and Rho-kinase activity was measured (kit Merck-Millipore) according to manufacturer. Untreated cells and cells exposed to the Rho-kinase inhibitor Y27632 (10 μM) were used for controls.

The test system of data set [1] is differentiated HepaRG cells (bile canalicular lumen). Briefly: Bile canaliculi lumen morphology by F-actin (phalloidin) / CDFDA imaging. The following applies: for change of bile canaliculus lumen (constriction or swelling): Example 1, 2 h exposure, F-actin phalloidin staining; for change of bile canaliculus lumen (constriction or swelling) / change of biliary lumen (constriction or swelling): differentiated HepaRG cells; for induction of cholestasis (phenotype with swollen lumen) / change of biliary lumen (constriction or swelling): Example 2; for induction of cholestasis (phenotype with swollen lumen): HepaRG cells; for change of biliary lumen (constriction or swelling): F-actin phalloidin and CDFDA staining. The protocol:
Two week DMSO-treated HepaRG cultures were exposed to 50 μM CPZ for 2 h and analyzed at different times during exposure. Constriction was evidenced by F-actin staining using phalloidin.
Comparison of the cytoskeleton organization of control cells versus CPZ and Y27632 treated cultures for 2 h. Fibers of F-actin accumulated at the biliary were labelling by phalloidin and counterstaining of nuclei was performed by Hoechst staining.
ii)—Analysis of the F-actin organization and biliary lumen changes using phalloidin and fluorescent CDFDA staining. After exposure to the candidate compounds, cells were washed twice, fixed with Paraformaldehyde (4%) fixative for 20 min, washed and stained with phalloidin for 10 min. For CDFDA staining, details are provided below.
Images obtained on microscope were used for calculating the size of the biliary lumen after treatment. Appropriate algorithm has been developed for quantification using Cellomics equipment.

For another data set, the system named is HepaRG cells. Briefly: Accumulation of labelled taurocholate in cells including canaliculi space. As to conditions: increased concentrations, compared to control. The text has this: The data also provides information related to junctional complex organization and the role of metalloproteinases in controlling permeability.
The subject of data set [2] is differentiated HepaRG cells (canalicular clearance). Briefly: Biliary clearance with Rhodamin 123 marker compound. The protocol: Another assay was performed with Rhodamin 123 as marker compound.
Data set [3] relates to phosphorylated myosin light chain (P-MYL9). Briefly: Western blotting of phosphorylated myosin light chain. As to conditions: for P-myosin (P-MYL9) level by western blotting: Example 2, after 1 hour.
Procedure: Accumulation of phosphorylated light chain myosin was evidenced by western blotting technique in using the (P)-MYl2 antibody. Control cells, 2h-CPZ treated cells and 2h-y27632-treated cells were compared. Cell lysates were prepared.
Accumulation of the phosphorylated myosin light chain was performed by western blotting using p-Myl antibody.
For data set [4], the system named is HepaRG cells (canalicular efflux). Briefly: Efflux of [3H]-taurocholate. How it is done:
Efflux of Taurocholate (TA). Cells were first exposed to [3H]-TA for 30 min, then washed with PBS and incubated with or without CPZ at different time points (from 0 to 6 hours) in a standard buffer with Ca2+ and Mg2+. After the incubation time, cells were washed with PBS and incubated for 5 min with a Ca2+ and Mg2+− free buffer in order to disrupt the canalicular tight junctions. Then they were scraped in 0.1 N NaOH; the remaining radiolabeled substrate was measured through scintillation counting to determinate TA efflux. To discriminate between basolateral and canalicular efflux, cells were incubated in parallel in either standard or Ca2+ and Mg2+-free buffer for 30 minutes after TA uptake before measuring the remaining radiolabeled TA. Canalicular efflux was calculated using this equation: Canalicular efflux: Radioactivity in efflux mediumCa2+ and Mg2+ free buffer—Radioactivity in efflux medium Standard buffer. Differentiated cells were exposed or not to CPZ (50 μM for 2 h) before radiolabelled TA addition.

Data set [5] relates to differentiated HepaRG cells (canalicular clearance). Briefly: Biliary clearance activity with CDFDA marker compound. As to conditions: versus control cells. How it is done:
The first step was incubation with the marker compound. CDFDA was preferentially used. After washing, differentiated cells plated in wells from 24 well-plates, were washed with HBSS buffer twice and incubated with 250 μl of CDFDA solution prepared at the final concentration of 3 μM in HBSS buffer containing Ca++ buffer (pH 7.4). After 30 min cells were washed with the same buffer. […] Quantification of the fluorescent dye into the medium is performed. A comparative evolution was established between control (untreated) and CPZ- and EF-treated cells. […] Calculation of the amount of released fluorescent dye molecules was performed by spectrometry and the canalicular clearance efficiency (CCE) was determined per time unit.

On to `S=C=Nc1cccc2ccccc12` [ANIT], for which, in the data set on ZO-1, the “distribution of ZO-1 at the biliary pole” value is on record as “appears normal”. Also, in the data set on Rho-kinase, the Rho-kinase activity result was “activate the Rho-kinase activity”. Further, in data set [1], the “change of bile canaliculus lumen (constriction or swelling)” value (from here on “change of bile canaliculus lumen”) is “inducing lumen constriction”, the “induction of cholestasis (phenotype with swollen lumen)” value (shortened to “induction of cholestasis”) is “inducing cholestasis” and the “change of biliary lumen (constriction or swelling)” value (“change of biliary lumen” below) is “relaxation/swelling”.
As to `O=S(=O)(c1cccc2cnccc12)N1CCCNCC1` [Fasudil], the “distribution of ZO-1 at the biliary pole” value with ZO-1 was “appears normal”. The “accumulation of labelled taurocholate in cells including canaliculi space” value (“accumulation of labelled taurocholate” for short) with HepaRG cells was “abnormal accumulation of labelled taurocholate”. Moreover, in the data set with HepaRG cells (listed as fasudil), the “accumulation of labelled taurocholate” value is given as “highest values”. In data set [1], the “induction of cholestasis” value is “inducing cholestasis” and the “change of biliary lumen” value is “relaxation/swelling”.
As for `C=CC[C@@H]1/C=C(\C)C[C@H](C)C[C@H](OC)[C@H]2O[C@@](O)(C(=O)C(=O)N3CCCC[C@H]3C(=O)O[C@H](/C(C)=C/[C@@H]3CC[C@@H](O)[C@H](OC)C3)[C@H](C)[C@@H](O)CC1=O)[C@H](C)C[C@@H]2OC` [Fk, Tacrolimus], in the data set on Rho-kinase, the Rho-kinase activity entry is “activate the Rho-kinase activity”. The “change of bile canaliculus lumen” value in data set [1] is listed as “inducing lumen constriction”.
Take `CN(C)CCCN1c2ccccc2Sc2ccc(Cl)cc21` [CPZ, chlorpromazine]: the “clearance of Rhodamin 123 dye” value in data set [2] was “delay”. Further, in the data set on ZO-1, the “distribution of ZO-1 at the biliary pole” value was “appears normal”. Further, in data set [3] (Example 1, 2 h treated HepaRG cells), the “myosin-light chain phosphorylation (immunoblotting)” value is given as “accumulation of myosin-light chain phosphorylation”. In data set [3], the “P-myosin (P-MYL9) level by western blotting” value (from here on “P-myosin (P-MYL9) level”) is given as “accumulation of P-myosin”. The Rho-kinase activity entry in the data set with Rho-kinase was “dose-dependent activation of Rho-kinase”. In addition, the taurocholate efflux result in data set [4] (CPZ 50 μM) is “decrease of taurocholate efflux”. Further, the “clearance of CDFDA dye out of the canalicular space” value in data set [5] is reported as “delay in the clearance of dye”; in data set [5] (listed as chlorpromazine) it was “delay of clearance”. Further, the “change of bile canaliculus lumen” value in data set [1] is reported as “Constriction of canaliculus lumen”; in data set [1] (listed as chlorpromazine), “constriction of the canaliculus lumen”. The “change of biliary lumen” value was “lumen constriction” in data set [1]; “abnormal and permanent lumen constriction” in data set [1] (listed as chlorpromazine).
On to `COc1ccccc1Oc1c(NS(=O)(=O)c2ccc(C(C)(C)C)cc2)nc(-c2ncccn2)nc1OCCO` [bosentan], for which, in data set [1], the “change of biliary lumen” value was “abnormal and prolonged canalicular lumen swelling”.
Turning to `CC(=O)/C(C)=N/O` [BDM], the “P-myosin (P-MYL9) level” value in data set [3] is given as “inhibition of P-myosin phosphorylation”.
Take `C[C@H](CCC(=O)O)[C@H]1CC[C@H]2[C@@H]3CC[C@@H]4C[C@H](O)CC[C@]4(C)[C@H]3C[C@H](O)[C@]12C` [DCA, Deoxycholic acid]: the “induction of cholestasis” value in data set [1] is reported as “inducing cholestasis”.
Take Cyclosporin A [CsA]: the “P-myosin (P-MYL9) level” value in data set [3] is “accumulation of P-myosin”. Besides, the Rho-kinase activity result in the data set with Rho-kinase was “activate the Rho-kinase activity”. Besides, in data set [1], the “change of bile canaliculus lumen” value was “inducing lumen constriction” and the “change of biliary lumen” value is given as “lumen constriction”. Besides, the “change of biliary lumen” value in data set [1] (listed as cyclosporine A) was “constriction”.
Turning to `C[C@@H](N)[C@H]1CC[C@H](C(=O)Nc2ccncc2)CC1` [Y27632], the “clearance of Rhodamin 123 dye” value in data set [2] was “delay”. Further, the “P-myosin (P-MYL9) level” value in data set [3] was “inhibition of P-myosin phosphorylation”. Also, the “taurocholate efflux with Rho-kinase inhibitor added to CPZ” value in data set [4] (in presence of CPZ) was “recovery of taurocholate efflux activity”. Also, in data set [5], the “clearance of CDFDA dye out of the canalicular space” value was “delay in biliary clearance”. Further, the “clearance of CDFDA dye out of the canalicular space” value in data set [5] (listed as EF) was “delay in the clearance of dye”. Also, the “accumulation of labelled taurocholate” value in the data set with HepaRG cells is recorded as “abnormal accumulation of labelled taurocholate”. For the same compound, in data set [1], the “change of bile canaliculus lumen” value is recorded as “swelling/relaxation” and the “change of biliary lumen” value is on record as “swelling”.

For the origin of these results see US10444228B2, “Method of screening a candidate compound for inducing bile canalicular function disorders” (Biopredic International, priority 2014, dated 2019).
